Source: DBAASP
In brackets after ≈: the same amount, converted by molar mass.

Legend:
Experiment in all cases: ≥ marks a high value that may be exact or a test limit, other limits are often not marked, values filed in µg/mL are converted to µM
[1] = test system: Escherichia coli ATCC 25726
[2] = test system: Staphylococcus aureus ATCC 25923
[3] = test system: Escherichia coli ATCC 25922
[4] = test system: Pseudomonas aeruginosa Ps4

Row | MIC [4] [µM] | SMILES | also measured
1 |  | CC(C)C[C@@H]1NC(=O)CNC(=O)[C@H](CO)NC(=O)[C@H](CC(C)C)NC(=O)[C@H](C)NC(=O)[C@@H](NC(=O)[C@H](C)NC(=O)[C@@H](NC(=O)[C@H](CCCCN)NC(=O)[C@H](CCCCN)NC(=O)CNC(=O)[C@H](C)NC(=O)CNC(=O)[C@H](Cc2ccccc2)NC(=O)[C@H](CC(C)C)NC(=O)[C@H](CO)NC(=O)CNC(=O)[C@H](CC(C)C)NC(=O)[C@H](CC(C)C)NC(=O)CN)C(C)C)CSSC[C@@H](C(=O)O)NC1=O [GLLGSLFGAGKKVACALSGLC] | MIC [1]: 31.8 µM (≈ 62.4 µg/mL); MIC [2]: 63.6 µM (≈ 125 µg/mL)
2 | ≥ 83.9 | CC[C@H](C)[C@H](NC(=O)[C@H](CC(N)=O)NC(=O)[C@H](CCCN=C(N)N)NC(=O)[C@H](CCC(N)=O)NC(=O)[C@H](Cc1c[nH]c2ccccc12)NC(=O)[C@@H](N)Cc1ccccc1)C(=O)N[C@@H](CCCN=C(N)N)C(=O)N[C@@H](CCCCN)C(=O)N[C@@H](Cc1c[nH]c2ccccc12)C(=O)N[C@@H](CCCN=C(N)N)C(N)=O [FWQRNIRKWR] | MIC [3]: 83.9 µM (≈ 125 µg/mL)
3 | ≥ 179 | CC[C@H](C)[C@H](NC(=O)[C@H](CC(N)=O)NC(=O)[C@H](CCCN=C(N)N)NC(=O)[C@H](CCC(N)=O)NC(=O)[C@H](Cc1c[nH]c2ccccc12)NC(=O)[C@@H](N)Cc1ccccc1)C(=O)N[C@@H](Cc1ccccc1)C(=O)N[C@@H](CCCCN)C(=O)N[C@H](C(=O)N[C@@H](CCCN=C(N)N)C(N)=O)C(C)C [FWQRNIFKVR] | 
4 | ≥ 124 | NC(=O)[C@H](CCCN=C(N)N)NC(=O)[C@H](CCCN=C(N)N)NC(=O)[C@H](Cc1c[nH]c2ccccc12)NC(=O)[C@H](CCCN=C(N)N)NC(=O)[C@H](Cc1c[nH]c2ccccc12)NC(=O)[C@@H](N)Cc1ccccc1 [FWRWRR] | 
5 | ≥ 94.9 | CC[C@H](C)[C@H](NC(=O)[C@H](CCCN=C(N)N)NC(=O)[C@@H](NC(=O)[C@H](CC(N)=O)NC(=O)[C@H](CCCN=C(N)N)NC(=O)[C@H](Cc1c[nH]c2ccccc12)NC(=O)[C@@H](N)Cc1ccccc1)[C@@H](C)CC)C(=O)N[C@@H](CCCN=C(N)N)C(=O)N[C@@H](CCCN=C(N)N)C(N)=O [FWRNIRIRR] | 
6 | ≥ 176 | CC[C@H](C)[C@H](NC(=O)[C@H](CC(N)=O)NC(=O)[C@H](CCCN=C(N)N)NC(=O)[C@H](CCC(N)=O)NC(=O)[C@H](Cc1c[nH]c2ccccc12)NC(=O)[C@@H](N)Cc1ccccc1)C(=O)N[C@@H](CCCN=C(N)N)C(=O)N[C@@H](Cc1ccccc1)C(=O)N[C@H](C(=O)N[C@@H](CCCN=C(N)N)C(N)=O)C(C)C [FWQRNIRFVR] | 
7 | ≥ 165 | CC[C@H](C)[C@H](NC(=O)[C@H](CC(N)=O)NC(=O)[C@H](CCCN=C(N)N)NC(=O)[C@H](CCC(N)=O)NC(=O)[C@H](Cc1c[nH]c2ccccc12)NC(=O)[C@@H](N)Cc1ccccc1)C(=O)N[C@@H](CCCN=C(N)N)C(=O)N[C@@H](Cc1c[nH]c2ccccc12)C(=O)N[C@@H](CCCN=C(N)N)C(=O)N[C@@H](CCCN=C(N)N)C(N)=O [FWQRNIRWRR] | 
8 | ≥ 44.1 | CC[C@H](C)[C@H](NC(=O)[C@H](CCCN=C(N)N)NC(=O)[C@H](Cc1c[nH]c2ccccc12)NC(=O)[C@@H](NC(=O)[C@H](CCCN=C(N)N)NC(=O)[C@H](Cc1c[nH]c2ccccc12)NC(=O)[C@@H](N)Cc1ccccc1)[C@@H](C)CC)C(=O)N[C@@H](Cc1c[nH]c2ccccc12)C(=O)N[C@@H](CCCN=C(N)N)C(N)=O [FWRIWRIWR] | 
